Assay results taken from ChEMBL document CHEMBL1141934, “Comparison of ligand-based and structure-based 3D-QSAR approaches: a case study on (aryl-)bridged 2-aminobenzonitriles inhibiting HIV-1 reverse transcriptase” (J Med Chem, 2005).

Target: Human immunodeficiency virus type 1 reverse transcriptase (Human immunodeficiency virus 1, UniProt Q72547)
Experiment: Inhibitory concentration against Reverse transcriptase

SMILES	IC50 [µM]
N#Cc1ccccc1[S+]([O-])c1cccc(N)c1C#N (configuration not stated)	9.77
N#Cc1c(N)cccc1S(=O)(=O)c1ccc2ccccc2c1	0.0295
